Experimental data: a melting point compilation (Tetko et al.; mined from patent text by program, amines drawn as free bases though some values may be those of a salt)

| SMILES | melting point [°C] |
| --- | --- |
| N#CC1OC12CCN(C(=O)c1ccc(F)c(Cl)c1)CC2 (stereo unspecified) | 100 to 101 |
| COc1ccc2[nH]c3c([N+](=O)[O-])cc([N+](=O)[O-])c(Cl)c3c(=O)c2c1 | 253 to 254 |
| COc1cc2[nH]c3c(OC)c(OC)ccc3c2cc1OC | 170 to 171 |
| Cc1c(C(=O)O)sc2c(Br)csc12 | 280 to 282 |
| COc1cc(C(=O)NS(=O)(=O)c2ccccc2)ccc1CN1CCOc2ccc(NC(=O)OC3CCCC3)cc21 | 186 to 187 |
| NCC1CN(c2c(F)cc3c(=O)c(C(=O)O)cn(C4CC4)c3c2F)C1 | 190 to 195 |
| O=C(O)Cc1c(C(=O)O)c2cc(Oc3ccc(C(F)(F)F)cc3)ccc2n1-c1ccc(OC(F)(F)F)cc1 | 257 to 259 |
| CCOCc1c(-c2ccc(OC(F)F)c(OC3CC3)c2)[nH]c2cn[nH]c(=O)c12 | 141 to 143 |
| O=C1CCCCN1C1=CC(CF)(CF)Oc2ccc(C(F)(F)F)cc21 | 166 to 168 |
| Cc1cc(F)cc2nc(Cl)c(Cl)nc12 | 116 to 120 |
| CCN(CC)C/C=C/c1ccc2c(Nc3ccc(Sc4nccn4C)c(Cl)c3)c(C#N)cnc2c1 | 223 to 228 |
| COC(=O)C1Sc2cc(Cl)ccc2OCC1=O (stereo unspecified) | 92 to 94 |
| O=C(O)c1cc(-c2ccc(OC(F)(F)F)cc2)c2c3c(ccc2c1)OCO3 | 296 to 300 |
| CC1CN(c2cc3c(c(N)c2F)c(=O)c(C(=O)O)cn3C2CC2)CCN1 (stereo unspecified) | 181 to 183 |
| COc1ccc(N2CCOCC2)c2sc(C(=O)NC3CCN(C(=O)OC(C)(C)C)CCC3=O)nc12 (stereo unspecified) | 95 to 97 |
| COc1nc(N)nc(C(F)(F)F)n1 | 161 to 164 |
| CCNC(=O)n1nc(Oc2ccc([N+](=O)[O-])cc2C(F)(F)F)cc1C | 95 to 97 |
| CC1(N2Cc3cc(CNC(=O)c4ccc(Cl)c(Cl)c4)ccc3C2=O)CCC(=O)NC1=O (stereo unspecified) | 220 to 222 |
| CCCCc1oc2ccc(NS(C)(=O)=O)cc2c1C(=O)c1ccc(OCCN(CCCC)CCCC)cc1 | 86 |
| COC(=O)c1ccc2c(c1)COC(C(Cl)(Cl)Cl)N2 (stereo unspecified) | 116 to 117 |
| CCOC(=O)c1c2n(c3c(F)c(Cl)ccc3c1=O)CCS2 | 216 |
| O=[N+]([O-])c1ccc(Oc2ccc(S(=O)(=O)NC3CCCCC3)cc2)cc1 | 94 |

The remaining lines, values ahead:

| melting point [°C] | SMILES |
| --- | --- |
| 142 to 144 | Cc1c(OCC(F)(F)F)ccnc1CSc1nc2ccccc2[nH]1 |
| 195 to 196 | CC(C)(C)c1cc(C=O)c2ccccc2c1O |
| 131 | CCOC(=O)c1c(O)c2cc(F)ccc2n(C)c1=O |
| 162 to 164 | N=C(N)NOc1nccc2ccccc12 |
| 187 to 188 | CNS(=O)(=O)c1ccccc1Nc1nc(Nc2ccc3c(c2)COC[C@@H]2CCCN32)ncc1Cl |
| 160 to 162 | COc1nc(-c2ccccc2)c2ccsc2n1 |
| 50 to 50.5 | Cc1ccc(C(=O)CCCC(C)C(=O)O)cc1 (stereo unspecified) |
| 51 to 52 | CC(C)c1nn2ccccc2c1Br |
| 148 to 152 | CCOC(=O)Cc1ccnc(C(SC)=C(C#N)C#N)c1 |
| > 300 | CC(=Cc1cnc2nc(N)nc(N)c2c1)c1ccc(C(=O)OC(C)(C)C)cc1 |
| 159 to 161 | NC(=O)c1cc(O)ccc1Cl |
| 82 to 86 | O=[N+]([O-])c1ccccc1SN(CCO)CCO |
| > 260 | O=C(O)c1ccc2oc(-c3ccc(C(F)(F)F)nc3)cc2c1 |
| 194 to 196 | CCOC(=O)c1ccc(-n2cnnc2S)cc1 |
| 237 to 238 | CC1CN(c2ncc(C(=O)N(C)c3cccc(C(F)(F)F)c3)c(N)n2)C(=O)N1 (stereo unspecified) |
| 52 to 54 | COC=C(C(=O)OC)c1ccccc1CCc1ccccc1 |
| 110 | CS(=O)(=O)N1CCN([C@@H](CNCS(=O)(=O)c2ccc(OCc3ccccc3)cc2)C(=O)NO)CC1 |
| > 250 | N#Cc1ccc(C2=Nc3ccc(-c4ccccc4F)cc3NC(=O)C2)s1 |
| 159 to 161 | C=CCONC(=O)c1nc(-c2ccc(Cl)c(OC)c2F)nc(N)c1Cl |
